Source: patent publication US8586369B2, “Ion channel-forming peptides” (The Regents of the University of California, priority 2007, dated 2013)
Several values for one entry are separate records, joined by “and”; a condition that tells them apart may be missing. Equal entries are not always repeated. Entries after “also recorded” stand apart in the source; their conditions may differ.

How the values were obtained:
[1] = Single-channel conductance of homodimeric gA pores in planar lipid bilayers made from DiPhyPC (Example 1); assay type: biochemical; conditions: for Single-channel conductance γ: HEPES pH 7.4, DiPhyPC bilayers, slope of I-V curves; for Single-channel conductance γ / γ at pH 7.4: homodimers; for γ-ratio to gA-gA: pH 7.4, DiPhyPC; for γ at pH 7.4: DiPhyPC bilayers
Experimental: Formation of planar lipid bilayers: We formed most planar lipid bilayers with the “folding technique.” We used a Teflon film (Eastern Scientific Inc, pore diameter 0.18-0.25 mm) was pretreated on each side with 2.5 μL of 5% hexadecane in pentane and air dried. This film was mounted using vacuum grease (Dow Corning, High vacuum grease) to a custom made Teflon chamber separating two buffer compartments each with a volume capacity of 4 mL. After adding 1 mL of electrolyte (0.01 M to 1.00 M KCl buffered with HEPES pH 7.4) to each compartment, lipids were spread from a solution in pentane onto the surface of the electrolyte solutions (specifically, 4-6 μL from 25 mg mL-l solution DiPhyPC or from 6.25 mg mL-l each of 50% DOPS and 50% POPE or from 25 mg mL-l DODAP mixed with 25 mg mL-l DiPhyPC in a 1:9 ratio. Three additional milliliters of electrolyte solution were added to each side of the chamber to raise the liquid levels above the aperture. We formed the bilayers from apposition of two monolayers of lipids using the method described by Montal et al. (Proc. Natl. Acad. Sci. U.S.A. 1972, 69, 3561-3566). Briefly, bilayers were obtained by consecutively raising the liquid level in each compartment until the pore was completely covered by electrolyte. If at this point the pore was not closed by a lipid bilayer, then the liquid level in one or both compartments was lowered below the pore level by aspirating electrolyte into a 3 mL syringe, followed by raising the electrolyte solution again.
Planar lipid bilayers were also made with the “painting technique”. We pretreated each side of a pore in a bilayer cup (Warner Instruments, Delrin perfusion cup, volume 1 mL, pore diameter 250 μm) with ˜2 μL of a 25 mg mL-l solution of DiPhyPC in hexane. After adding recording buffer (0.01 M KCl to 1.00 M KCl buffered with HEPES, pH=7.4) to both compartments of the bilayer setup, we “painted” a solution of 20 mg mL-l DiPhyPC in n-decane over the pore by using a paint brush with a fine tip. We followed the thinning of the decane droplet to form a planar bilayer by monitoring the capacitance of the bilayer. After verifying that bilayers were stable for several minutes (in the range of ±200 mV applied voltage) and that the capacitances were above 80-90 pF, gA was added (4-8 μL from 1 ng mL-l in ethanol), derivatives 1 or 2 (2-10 μL from 100 ng mL-l in ethanol), or derivative 3 (4-10 μL from 100 ng mL-l in ethanol) directly to the bilayer chambers.
Ion channel measurements: We performed single channel recordings in “voltage clamp mode” using Ag/AgCl electrodes (Warner Instruments) in each compartment of the bilayer chambers. Data acquisition and storage was carried out using custom software in combination with either an EPC-7 patch clamp amplifier from List Medical Electronic (set at a gain of 100 mV pA-1 and a filter cutoff frequency of 3 kHz) or a Geneclamp 500 amplifier from Axon Instruments (with a CV-5B 100GU headstage, set at a gain of 100 mV pA-1 and filter cutoff frequency of 1 kHz). We used the EPC-7 amplifier for most folded bilayers and the Geneclamp 500 amplifier for most painted bilayers. The data acquisition boards for both amplifiers were set to a sampling frequency of 15 kHz. All current traces shown in the figures were further filtered using a digital Gaussian low-pass filter with a cutoff frequency of 30 Hz. The current traces we used to generate all data that was recorded at applied potentials s 50 mV were filtered at 10 Hz.
We performed the analysis of the single channel current traces by computing histograms of the currents from the original current-time traces with ClampFit 9.2 software from Axon Instruments. From these histograms we extracted the main current values by fitting a Gaussian function to the peaks in the histograms. […] Single channel conductances reported in this paper always refer to the main conductance state (i.e. to the dominant peaks in the current histograms).

[2] = Single-channel conductance in negatively charged planar bilayers (50% POPE, 50% DOPS); assay type: biochemical; conditions: 0.01 M KCl
From the text: The data acquisition boards for both amplifiers were set to a sampling frequency of 15 kHz.

Alkaline Phosphatase = tested on: Alkaline Phosphatase
Experimental: Monitoring the enzymatic hydrolysis of glycolic acid-O-phosphate with Alkaline Phosphatase by NMR: Glycolic acid-O-phosphate (1.1 mg, 7.1 μmol) was added to a buffer containing 0.5 mL of 100 mM KCl, 140 mM Na2CO3 buffer in 0.5 mL of D2O at pD 9.4. […] (0.5 mg, 1 nmol) was added to the solution and ^31P-NMR spectra were taken at various time points to monitor the enzymatic hydrolysis of glycolic acid-O-phosphate to glycolic acid. ^31P-NMR (300 MHz, D2O): glycolic acid-O-phosphate: δ 3.33 ppm, free inorganic phosphate: 2.54 ppm using an internal 85% phosphoric acid standard (set to 0 ppm).

[3] = Single channel recordings of gA derivatives in planar lipid bilayers (Example 2); assay type: biochemical; conditions: applied potential 100 mV, 20 mM KCl, 0.2 mM HEPES pH 7.4
Experimental: Formation of Planar Lipid Bilayers: Planar lipid bilayers were formed by the “folding technique.” Briefly, a film (e.g., Teflon®, Eastern Scientific Inc, pore diameter 0.1-0.2 mm) that was pretreated on both sides of the pore with 2 μL of 5% (v/v) hexadecane in pentane. This film was mounted using vacuum grease (Dow Corning, High vacuum grease) to a custom-made Teflon chamber separating two buffer compartments each with a volume capacity of 4 mL. After addition of 1 mL of electrolyte (20 mM KCl buffered with 0.2 mM HEPES pH 7.4 or 140 mM KCl buffered with 10 mM phosphate pH 8.0) to each compartment, lipids were spread at the air-water interface of the electrolyte solution in both compartments. Three additional milliliters of the same electrolyte solution were added to each compartment to raise the liquid level above the aperture in the Teflon film. The bilayers were formed on the pore of the Teflon film by aspirating the electrolyte solution into a 3 mL syringe, followed by dispensing the electrolyte solution back into each compartment.
Ion Channel Measurements: Single channel recordings in “voltage clamp mode” were performed using Ag/AgCl pellet electrodes (Warner Instruments) in each compartment of the bilayer setup. Data acquisition and storage was carried out using custom software in combination with an EPC-7 patch clamp amplifier from Heka (set at a gain of 10 mV pA^−1 and a filter cutoff frequency of 3 kHz). The data acquisition board for the amplifier was set to a sampling frequency of 15 kHz. All current traces shown in the figures were further filtered using a digital Gaussian low-pass filter with a cutoff frequency of 4 Hz.
The analysis of single channel current traces was performed by computing histograms of the currents from the original current versus time traces with ClampFit 9.2 software from Axon Instruments. From these histograms, main current values were extracted by fitting a Gaussian function to the peaks in the histograms. […]

[4] = Single-channel conductance of homodimeric gA pores in planar lipid bilayers made from DiPhyPC (Example 1); assay type: biochemical; conditions: 20 mM KCl plus 10 mM KOH; for γ at pH 12: DiPhyPC bilayers, homodimers
[5] = target: bovine carbonic anhydrase II (CA, EC 4.2.1.1) (Bos taurus, UniProt P00921); test: Detection of protein-ligand binding interactions using ion channel measurements; conditions: 12 pM structure 11, 50 μM CA, 140 mM KCl, 10 mM phosphate pH 8.0, 100 mV
Experimental: Benzenesulfonamides are well-known ligands for carbonic anhydrase II (CA, EC 4.2.1.1), a Zn^2+-containing protein.
Detection of protein-ligand binding interactions using ion channel measurements: About 1 μL (from a 100 ng mL^−1 solution in ethanol) of structure 11 (to afford a final concentration of 12 pM of structure 11) was added to each compartment of a bilayer setup containing as electrolyte 140 mM KCl and 10 mM phosphate buffer (pH 8.0). The conductance was recorded at 100 mV.

bovine carbonic anhydrase II (CA, EC 4.2.1.1), sequence (P00921 whole entry): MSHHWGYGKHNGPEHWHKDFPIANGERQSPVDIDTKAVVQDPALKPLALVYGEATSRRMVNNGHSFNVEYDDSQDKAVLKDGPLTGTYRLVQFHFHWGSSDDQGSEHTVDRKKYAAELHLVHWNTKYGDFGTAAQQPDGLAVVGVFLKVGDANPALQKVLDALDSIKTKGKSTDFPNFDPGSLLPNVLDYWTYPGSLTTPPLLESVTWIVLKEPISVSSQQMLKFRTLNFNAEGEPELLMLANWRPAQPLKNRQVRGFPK

gramicidyl taurinyl succinate [compound 1]
Single-channel conductance γ ([1]; 0.01 M KCl): 3.5 ± 0.3 pS
γ-ratio to gA-gA ([1]; 0.01 M KCl): about 1.3
γ-ratio to gA-gA ([1]; 0.01 M KCl, listed as 1-1): 1.3
Single-channel conductance γ ([1]; 0.10 M KCl): 11.0 ± 0.4 pS
γ-ratio to gA-gA ([1]; 0.10 M KCl): 1.1
Single-channel conductance γ ([1]; 1.00 M KCl): 19.5 ± 0.4 pS
γ-ratio to gA-gA ([1]; 1.00 M KCl): 1.0
difference in single channel conductance compared to gA ([1]; approximately 0.10 M KCl): 7%
difference in single channel conductance compared to gA ([1]; approximately 1.00 M KCl): 3%
Single-channel conductance γ in negatively charged bilayers ([2]; 0.1 mM HEPES pH 7.4): 26.8±0.9 pS

O=C(O)COP(=O)(O)O [glycolic acid-O-phosphate]
time after which the enzymatic hydrolysis was completed (Alkaline Phosphatase; 7.1 μmol substrate, 1 nmol enzyme, 100 mM KCl, 140 mM Na2CO3, pD 9.4): 50 min
hydrolysis by AP (Alkaline Phosphatase; 31P-NMR spectroscopy): hydrolyzed by AP

gramicidamine
conductance compared with gA-gA at pH 7.4 ([1]; 20 mM KCl, DiPhyPC): significantly less
γ at pH 7.4 ([1]; 20 mM KCl): 3.8 ± 0.2 pS
ion channel activity in planar lipid bilayers [3]: retained well-defined ion channel activity
conductance compared with gA-gA at pH 12 ([4]; DiPhyPC): indistinguishable
γ at pH 12 [4]: 7.7 ± 0.9 pS

Gramicidin A [gA, reference compound]
Single-channel conductance γ ([1]; 0.01 M KCl): 2.7 ± 0.5 pS
γ at pH 7.4 ([1]; 20 mM KCl): 4.5 ± 0.1 pS
Single-channel conductance γ ([1]; 0.10 M KCl): 10.3 ± 0.1 pS
Single-channel conductance γ ([1]; 1.00 M KCl, listed as gA-gA): 20 pS and 20.0 ± 0.2 pS
γ at pH 12 [4]: 7.8 ± 0.2 pS
Single-channel conductance γ in negatively charged bilayers ([2]; 0.1 mM HEPES pH 7.4, listed as gA-gA): 26.9±0.2 pS and 27 pS

gA-triazole-benzenesulfonamide [structure 11]
effect of CA on ion channel activity [5]: suppression of ion channel activity; also recorded: reduction of ion channel activity
effect of CA on ion channel activity ([5]; listed as gA-sulfonamide 11): reduces the observed transmembrane ion flux
